Reference: PubChem BioAssay (NCI)
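How tested: cells in 96-well plates exposed to compound for 48 hours at five concentrations. TGI: total growth inhibition.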

How the values were obtained:
Experiment in all cases: NCI tumour cell line growth inhibition, 48 h
SNB-78 CNS = tested on: SNB-78 CNS
P388/ADR leukemia = tested on: P388/ADR leukemia
P388 leukemia = tested on: P388 leukemia
XF 498 CNS = tested on: XF 498 CNS
DMS 273 small cell lung = tested on: DMS 273 small cell lung
SN12K1 renal = tested on: SN12K1 renal
DLD-1 colon = tested on: DLD-1 colon
HOP-18 NSCLC = tested on: HOP-18 NSCLC
LXFL 529 NSCLC = tested on: LXFL 529 NSCLC
RXF-631 renal = tested on: RXF-631 renal

| Structure (SMILES) | TGI (SNB-78 CNS) | TGI (P388/ADR leukemia) | TGI (P388 leukemia) | TGI (XF 498 CNS) | TGI (DMS 273 small cell lung) | TGI (SN12K1 renal) | TGI (DLD-1 colon) | TGI (HOP-18 NSCLC) | TGI (LXFL 529 NSCLC) | TGI (RXF-631 renal) |
| --- | --- | --- | --- | --- | --- | --- | --- | --- | --- | --- |
| O=C(O)c1cn2c3c(cc(N4CCN(CCO)CC4)cc3c1=O)SCC2 | > 100 µM | > 100 µM | > 100 µM | 67.2 µM | > 100 µM | > 100 µM | > 100 µM | > 100 µM | – | – |
| COc1ccc(/C=c2\sc3n(c2=O)C(N)=C(C#N)C(c2ccc(OC)cc2)C=3c2nc3ccccc3[nH]2)cc1 (stereo not given) | – | – | – | – | > 100 µM | – | – | – | – | – |
| CCOC(=O)C1=C(C)N(c2ccc(C)cc2)C2=C(C(=O)N(c3ccccc3)C2c2ccccc2)C1c1ccccc1 (stereo not given) | – | – | – | > 25 µM | > 25 µM | – | > 25 µM | – | > 25 µM | > 25 µM |
| CNC(=O)N(C)COC | > 100 µM | – | – | > 100 µM | – | – | > 100 µM | > 100 µM | > 100 µM | – |
| CN1CCC(CN2c3ccccc3Sc3ccccc32)CC1 | 30 µM | – | – | 23.9 µM | 26.2 µM | – | 28.3 µM | 27.5 µM | 27.5 µM | – |
| CC(=O)OC(CCC1(C)OC1COc1ccc(CCNC(=O)c2ccccc2)cc1)C(C)(C)OC(C)=O (stereo not given) | > 100 µM | – | – | – | 24.8 µM | – | > 100 µM | > 100 µM | 34.6 µM | – |
